According to PubChem BioAssay (NCI):
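All cell lines were grown in 96-well plates and treated with compound for 48 hours. GI50 = concentration required for 50% inhibition of growth. TGI: concentration producing complete growth inhibition.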

Assays:
Assay in all cases: NCI tumour cell line growth inhibition, 48 h
SNB-75 CNS = test system: SNB-75 CNS
K-562 leukemia = test system: K-562 leukemia
UACC-257 melanoma = test system: UACC-257 melanoma
MOLT-4 leukemia = test system: MOLT-4 leukemia
HS 578T breast = test system: HS 578T breast
KM12 colon = test system: KM12 colon
SK-MEL-2 melanoma = test system: SK-MEL-2 melanoma
HCT-116 colon = test system: HCT-116 colon
SK-OV-3 ovarian = test system: SK-OV-3 ovarian
SN12C renal = test system: SN12C renal
SF-295 CNS = test system: SF-295 CNS
MDA-MB-435 = test system: MDA-MB-435
HOP-62 NSCLC = test system: HOP-62 NSCLC
SNB-19 CNS = test system: SNB-19 CNS
M14 melanoma = test system: M14 melanoma
U251 CNS = test system: U251 CNS
MCF7 breast = test system: MCF7 breast
CCRF-CEM leukemia = test system: CCRF-CEM leukemia
T-47D breast = test system: T-47D breast
UO-31 renal = test system: UO-31 renal
ACHN renal = test system: ACHN renal
SK-MEL-28 melanoma = test system: SK-MEL-28 melanoma
NCI-H226 lung = test system: NCI-H226 lung
NCI-H23 lung = test system: NCI-H23 lung
MALME-3M melanoma = test system: MALME-3M melanoma
COLO 205 colon = test system: COLO 205 colon
HCT-15 colon = test system: HCT-15 colon
NCI-H460 lung = test system: NCI-H460 lung
SF-268 CNS = test system: SF-268 CNS
OVCAR-3 ovarian = test system: OVCAR-3 ovarian
DU-145 prostate = test system: DU-145 prostate
HOP-92 NSCLC = test system: HOP-92 NSCLC
OVCAR-5 ovarian = test system: OVCAR-5 ovarian
RXF 393 renal = test system: RXF 393 renal
A498 renal = test system: A498 renal
BT-549 breast = test system: BT-549 breast
PC-3 prostate = test system: PC-3 prostate
EKVX NSCLC = test system: EKVX NSCLC
786-0 renal = test system: 786-0 renal
RPMI-8226 leukemia = test system: RPMI-8226 leukemia
SF-539 CNS = test system: SF-539 CNS
CAKI-1 renal = test system: CAKI-1 renal
SR leukemia = test system: SR leukemia
NCI/ADR-RES ovarian = test system: NCI/ADR-RES ovarian
MDA-MB-231 breast = test system: MDA-MB-231 breast
TK-10 renal = test system: TK-10 renal
UACC-62 melanoma = test system: UACC-62 melanoma
OVCAR-8 ovarian = test system: OVCAR-8 ovarian
NCI-H522 lung = test system: NCI-H522 lung
HCC-2998 colon = test system: HCC-2998 colon
HL-60(TB) leukemia = test system: HL-60(TB) leukemia
HT29 colon = test system: HT29 colon
SK-MEL-5 melanoma = test system: SK-MEL-5 melanoma
OVCAR-4 ovarian = test system: OVCAR-4 ovarian
A549 NSCLC = test system: A549 NSCLC
LOX IMVI melanoma = test system: LOX IMVI melanoma
IGROV1 ovarian = test system: IGROV1 ovarian
SW-620 colon = test system: SW-620 colon

O=C1c2c(c3c4cc(O)ccc4oc3c3[nH]c4ccccc4c23)C(=O)N1O
GI50 (SNB-75 CNS): 1020 nM | TGI (SNB-75 CNS): 2240 nM | GI50 (K-562 leukemia): 428 nM | TGI (K-562 leukemia): 13900 nM | GI50 (UACC-257 melanoma): 1990 nM | TGI (UACC-257 melanoma): 6320 nM | GI50 (MOLT-4 leukemia): 320 nM | TGI (MOLT-4 leukemia): 1340 nM | GI50 (HS 578T breast): 1460 nM | TGI (HS 578T breast): 5760 nM | GI50 (KM12 colon): 1910 nM | TGI (KM12 colon): 5780 nM | GI50 (SK-MEL-2 melanoma): 1380 nM | TGI (SK-MEL-2 melanoma): 3080 nM | GI50 (HCT-116 colon): 1090 nM | TGI (HCT-116 colon): 2810 nM | GI50 (SK-OV-3 ovarian): 941 nM | TGI (SK-OV-3 ovarian): 3300 nM | GI50 (SN12C renal): 468 nM | TGI (SN12C renal): 5790 nM | GI50 (SF-295 CNS): 488 nM | TGI (SF-295 CNS): 5580 nM | GI50 (MDA-MB-435): 627 nM | TGI (MDA-MB-435): 2750 nM | GI50 (HOP-62 NSCLC): 721 nM | TGI (HOP-62 NSCLC): 4470 nM | GI50 (SNB-19 CNS): 542 nM | TGI (SNB-19 CNS): 5530 nM | GI50 (M14 melanoma): 371 nM | TGI (M14 melanoma): 3870 nM | GI50 (U251 CNS): 452 nM | TGI (U251 CNS): 12700 nM | GI50 (MCF7 breast): 323 nM | TGI (MCF7 breast): 5210 nM | GI50 (CCRF-CEM leukemia): 277 nM | TGI (CCRF-CEM leukemia): 9860 nM | GI50 (T-47D breast): 461 nM | TGI (T-47D breast): 4530 nM | GI50 (UO-31 renal): 342 nM | TGI (UO-31 renal): 1430 nM | GI50 (ACHN renal): 360 nM | TGI (ACHN renal): 1760 nM | GI50 (SK-MEL-28 melanoma): 1150 nM | TGI (SK-MEL-28 melanoma): 5460 nM | GI50 (NCI-H226 lung): 1320 nM | TGI (NCI-H226 lung): 5010 nM | GI50 (NCI-H23 lung): 411 nM | TGI (NCI-H23 lung): 2250 nM | GI50 (MALME-3M melanoma): 851 nM | TGI (MALME-3M melanoma): 5080 nM | GI50 (COLO 205 colon): 1800 nM | TGI (COLO 205 colon): 9360 nM | GI50 (HCT-15 colon): 1450 nM | TGI (HCT-15 colon): 7190 nM | GI50 (NCI-H460 lung): 414 nM | TGI (NCI-H460 lung): 2890 nM | GI50 (SF-268 CNS): 553 nM | TGI (SF-268 CNS): 4270 nM | GI50 (OVCAR-3 ovarian): 1570 nM | TGI (OVCAR-3 ovarian): 5230 nM | GI50 (DU-145 prostate): 626 nM | TGI (DU-145 prostate): 11200 nM | GI50 (HOP-92 NSCLC): 1140 nM | TGI (HOP-92 NSCLC): 4600 nM | GI50 (OVCAR-5 ovarian): 2770 nM | TGI (OVCAR-5 ovarian): 9300 nM | GI50 (RXF 393 renal): 872 nM | TGI (RXF 393 renal): 2260 nM | GI50 (A498 renal): 3160 nM | TGI (A498 renal): 9480 nM | GI50 (BT-549 breast): 423 nM | TGI (BT-549 breast): 1490 nM | GI50 (PC-3 prostate): 812 nM | TGI (PC-3 prostate): 5550 nM | GI50 (EKVX NSCLC): 2080 nM | TGI (EKVX NSCLC): 8040 nM | GI50 (786-0 renal): 752 nM | TGI (786-0 renal): 6620 nM | GI50 (RPMI-8226 leukemia): 1410 nM | TGI (RPMI-8226 leukemia): 8010 nM | GI50 (SF-539 CNS): 315 nM | TGI (SF-539 CNS): 1260 nM | GI50 (CAKI-1 renal): 787 nM | TGI (CAKI-1 renal): 3740 nM | GI50 (SR leukemia): 274 nM | TGI (SR leukemia): 1930 nM | GI50 (NCI/ADR-RES ovarian): 1570 nM | TGI (NCI/ADR-RES ovarian): 29700 nM | GI50 (MDA-MB-231 breast): 1180 nM | TGI (MDA-MB-231 breast): 4710 nM | GI50 (TK-10 renal): 5180 nM | TGI (TK-10 renal): 15400 nM | GI50 (UACC-62 melanoma): 703 nM | TGI (UACC-62 melanoma): 2400 nM | GI50 (OVCAR-8 ovarian): 820 nM | TGI (OVCAR-8 ovarian): 10700 nM | GI50 (NCI-H522 lung): 220 nM | TGI (NCI-H522 lung): 1220 nM | GI50 (HCC-2998 colon): 1350 nM | TGI (HCC-2998 colon): 3590 nM | GI50 (HL-60(TB) leukemia): 460 nM | TGI (HL-60(TB) leukemia): 7830 nM | GI50 (HT29 colon): 1600 nM | TGI (HT29 colon): 3800 nM | GI50 (SK-MEL-5 melanoma): 275 nM | TGI (SK-MEL-5 melanoma): 815 nM | GI50 (OVCAR-4 ovarian): 2170 nM | TGI (OVCAR-4 ovarian): 10700 nM | GI50 (A549 NSCLC): 3290 nM | TGI (A549 NSCLC): 18300 nM | GI50 (LOX IMVI melanoma): 258 nM | TGI (LOX IMVI melanoma): 1020 nM | GI50 (IGROV1 ovarian): 724 nM | TGI (IGROV1 ovarian): 2930 nM | GI50 (SW-620 colon): 549 nM | TGI (SW-620 colon): 7100 nM
